Legend:
[1] = tested on: monocrotaline-induced pulmonary hypertension model rats (MCT-PAH); assay: Monocrotaline-induced pulmonary hypertension model rats, oral (gavage) treatment for 21 days; assay type: in vivo, SD rats; conditions: 100 mg/kg
[2] = tested on: monocrotaline-induced pulmonary hypertension model rats (MCT-PAH); assay: Monocrotaline-induced pulmonary hypertension model rats, aerosol inhalation treatment; assay type: in vivo, SD rats; conditions: inh, 28 days
Protocol: A pulmonary hypertension animal model of SD rats was established by subcutaneous injection of monocrotaline (MCT). The compound 1 was administered by aerosol inhalation for treatment. The pulmonary artery hemodynamics and right heart hypertrophy index RVHI of rats were tested to determine whether compound 1 administered by aerosol inhalation has effects of improving monocrotaline-induced pulmonary hypertension.
SD rats (purchased from Shanghai Xipuer-Bikai Experimental Animal Co., Ltd.), male, weighing 180-200 g, were bred in an artificially controlled animal room with each 12 hours of light and darkness at a temperature of 20-25° C. and relative humidity of 50-60%, and allowed ad libitum to food and water. The rats were randomly divided into groups according to the experimental requirements, and kept separately in cages, with 3 to 4 rats per cage. All relevant operations of animal experiments are in compliance with the provisions of “Guidelines for the Management and Use of Laboratory Animals” of China.
In the second experiment, the rats were divided into 5 groups, namely the control group, model group, positive control Tyvaso (1.62 μg/kg) group, compound 1 (10 mg/kg) group and compound 1 (30 mg/kg) group. On the first day of the experiment, normal saline was injected subcutaneously into the back of the neck of the rats in the blank control group, and monocrotaline (Chengdu Purifa Biotechnology Co., Ltd.) solution was injected in the other groups at a dosage of 60 mg/kg. Compound 1 and Tyvaso were administered by aerosol inhalation, that is, the compound was firstly dissolved in physiological saline, and then the solution was prepared into an aerosol with a nebulizer to be inhaled into the mouth and nose of rats. The rats in the control group and the model group only inhaled an aerosol made of physiological saline. The rats were continuously administered for 28 days, and the concentration in the parentheses of the group name represents the administered concentration of the compound. Specific groupings can be found in Table 9. After the administration, the pulmonary vascular hemodynamics and RVHI were determined in the same way as the experiment method in Example 1.

CCc1cccc(C(O)CO)c1 (stereo not drawn) [Compound 1, 1-(3-ethylphenyl)-1,2-ethylene glycol]
2 × MT/ED [1]: 0.27 ± 0.062
RVHI [1]: 0.31 ± 0.059
RVSP [1]: 39.72 ± 3.46 mmHg
mPAP [1]: 9.21 ± 2.69 mmHg
RVHI ([1]; listed as compound 1, 100 mg/kg): 0.31±0.059
2 × MT/ED ([2]; 10 mg/kg): 0.335 ± 0.034
RVHI ([2]; 10 mg/kg): 0.235 ± 0.026
RVSP ([2]; 10 mg/kg): 35.92 ± 3.74 mmHg
mPAP ([2]; 10 mg/kg): 11.46 ± 2.48 mmHg
RVHI ([2]; 10 mg/kg, listed as compound 1, 10 mg/kg): 0.235±0.026
2 × MT/ED ([2]; 30 mg/kg): 0.319 ± 0.035
RVHI ([2]; 30 mg/kg): 0.204 ± 0.035
RVSP ([2]; 30 mg/kg): 31.18 ± 4.62 mmHg
mPAP ([2]; 30 mg/kg): 8.06 ± 2.59 mmHg
RVHI ([2]; 30 mg/kg, listed as compound 1, 30 mg/kg): 0.204±0.035

Source: patent US12180146B2, “Antihypertensive polyol compound and derivative thereof” (TAO PHARMACEUTICAL (SUZHOU) CO., LTD, priority 2020, dated 2024)
